We go through two molecules from patent US20090232909A1, “Method for determining physiological effects of hemoglobin” (priority 1999, published 2009).

For experiment [1], the system named is intact human erythrocytes. The experiment can be described thus: Distribution of NO groups in membrane and cytosolic fractions of RBCs exposed to NO. The class given is cell-based. As to conditions: 0.1 mM DIDS before NO, NO:heme 1:250. Here is the method: RBCs derived from fresh venous blood and suspended in oxygen-purged phosphate-buffered saline (PBS) were exposed in gas-tight vials to NO, added as aliquots of oxygen-purged NO-saturated PBS to yield the specified NO:heme ratios based on spectrophotometric assessment of heme content. Exposure to NO was for 5 mins followed by rinses in PBS at 21% O2. RBCs were lysed in 10 mM MOPS, 0.1 mM DTPA, pH 7, followed by centrifugation at 20,000×g for 10 mins to produce membrane and cytosolic fractions, which were solubilized in 1% TX-100. Quantification of NO groups was by photolysis/chemiluminescence (McMahon, T. J. & Stamler, J. S., Meth. Enzymol. 301:99-114, 1999). SNO content was measured as NO removed by treating sample aliquots for 5 mins with HgCl2 at 5-fold molar excess over estimated thiol content (Gow, A. J. & Stamler, J. S., Nature 391:169-173, 1998; Gow, A. J. et al., Proc. Natl. Acad. Sci. USA 96:9027-9032, 1999; McMahon, T. J. & Stamler, J. S., Meth. Enzymol. 301:99-114, 1999). […]
Immunoprecipitation was carried out by incubation of TX-100 or NP-40 extracts with antibodies followed by protein G-Sepharose. […] Binding of SNO-Hb to IOVs was assessed in 10 mM MOPS buffer, pH 7, at room temperature and 21% O2. Incubation was for 15 mins before IOVs were solubilized in 1% TX-100, and heme content was assessed spectrophotometrically. […]

In experiment [2] the test system is inside-out vesicles (IOV). The experiment can be described thus: Transnitrosylation of inside-out vesicles (IOV) by SNO-Hb. The class given is biochemical. As to conditions: IOVs (or source RBCs) treated before incubation with SNO-Hb. Here is the method:
RBCs derived from fresh venous blood and suspended in oxygen-purged phosphate-buffered saline (PBS) were exposed in gas-tight vials to NO, added as aliquots of oxygen-purged NO-saturated PBS to yield the specified NO:heme ratios based on spectrophotometric assessment of heme content. Exposure to NO was for 5 mins followed by rinses in PBS at 21% O2. RBCs were lysed in 10 mM MOPS, 0.1 mM DTPA, pH 7, followed by centrifugation at 20,000×g for 10 mins to produce membrane and cytosolic fractions, which were solubilized in 1% TX-100. Quantification of NO groups was by photolysis/chemiluminescence (McMahon, T. J. & Stamler, J. S., Meth. Enzymol. 301:99-114, 1999). SNO content was measured as NO removed by treating sample aliquots for 5 mins with HgCl2 at 5-fold molar excess over estimated thiol content (Gow, A. J. & Stamler, J. S., Nature 391:169-173, 1998; Gow, A. J. et al., Proc. Natl. Acad. Sci. USA 96:9027-9032, 1999; McMahon, T. J. & Stamler, J. S., Meth. Enzymol. 301:99-114, 1999). IOVs were prepared from outdated RBCs following Kondo (Kondo, T., Meth. Enzymol. 171:217-225, 1989) and stripped of peripheral membrane-bound proteins by washing for 60 mins in 0.5 M NaCl/100 mM Tris at pH 8. Chymotrypsin treatment of IOVs was for 15 mins at pH 7 and 37° C. with 5 U enzyme/mg IOV protein. For transnitrosylation, IOVs were incubated with SNO-Hb (50 nmoles SNO-Hb/mg IOV protein, about 10-fold excess over AE1) for 15 mins at pH 7 and 37° C. SNO-Hb was prepared from free or immobilized HbA (Apex) by selective S-nitrosylation of cysβ93 with S-nitroso-cysteine (Jia, L. et al., Nature 380:221-226, 1996; Stamler, J. S. et al., Science 276:2034-2037, 1997; McMahon, T. J. & Stamler, J. S., Meth. Enzymol. 301:99-114, 1999). Hb was immobilized on cyanogen bromide-activated Sepharose 4b.
Immunoprecipitation was carried out by incubation of TX-100 or NP-40 extracts with antibodies followed by protein G-Sepharose. […] Binding of SNO-Hb to IOVs was assessed in 10 mM MOPS buffer, pH 7, at room temperature and 21% O2. Incubation was for 15 mins before IOVs were solubilized in 1% TX-100, and heme content was assessed spectrophotometrically. When employed, RBCs were treated for 60 mins with DIDS (0.1 mM; calculated 10-fold molar excess over AE1), then washed thoroughly to remove unreacted DIDS. […]
IOVs incubated with SNO-Hb and washed at pH 8 to remove bound Hb incorporated about 450 pmol NO/milligram of TX-100-extracted IOV protein (FIG. 7D). […] It is important to note that SNO was not detected in extracts of IOVs exposed to NO in the absence of Hb (not shown). […] Following centrifugal separation, washes at pH 7 and solubilization in TX-100, extracts of IOVs were free of Hb as assessed by spectrophotometric detection of heme.

The target of experiment [3] is Hb (Homo sapiens, UniProt P68871+P69905). Description: metHb production by UV-visible difference spectroscopy after NO addition to variously oxygenated Hb. The class given is biochemical. Also noted: purchased Apex Bioscience (Research Triangle Park, N.C.). As to conditions: 10 mM phosphate. Here is the method: Nitroso/nitrosyl derivatives of Hb were measured using a photolysis-chemiluminescence technique [6-fold excess HgCl2 over protein was added to displace S-nitrosothiol (SNO) (Stamler, J. S., et al., Science, 276:2034-2037, 1997)]. Samples were kept on ice for a period of 5 minutes to 2 hours before analyses. MetHb was monitored by UV-visible spectroscopy as the difference absorption above the linear baseline (600-700 nm), and EPR (below).
Chain of Hb (P69905 2-142 limits assumed): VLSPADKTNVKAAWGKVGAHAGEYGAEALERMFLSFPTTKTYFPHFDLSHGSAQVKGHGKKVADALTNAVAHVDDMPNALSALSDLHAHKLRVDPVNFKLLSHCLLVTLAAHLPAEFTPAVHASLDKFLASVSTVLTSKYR
Chain of Hb (P68871 2-147 limits assumed): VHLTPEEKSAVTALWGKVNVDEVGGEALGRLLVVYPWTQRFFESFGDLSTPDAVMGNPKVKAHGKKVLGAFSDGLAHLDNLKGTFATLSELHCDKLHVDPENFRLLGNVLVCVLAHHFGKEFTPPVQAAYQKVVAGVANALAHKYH
The samples used in FIGS. 1A-1D were assayed for metHb production by UV-visible difference spectroscopy. The data are normalized to added [NO]. As in FIGS. 1A-1D: open diamonds, 10 mM phosphate; open circles, 10 mM phosphate plus borate; open squares, 10 mM phosphate plus SOD; filled circles and filled squares, 100 mM phosphate. The dotted (10 mM phosphate) and dashed (100 mM phosphate) lines are calculated by using Eq. 5 and Fe(II)NO yields in FIGS. 1C and 1D, respectively. […] Systematic deviations are most pronounced in low phosphate at high oxygen saturation—i.e., under physiological conditions.

“Also recorded” adds a separate entry of the source. Where only a bound is given, the exact number is not on record here.

`O=S(=O)(O)c1cc(N=C=S)ccc1C=Cc1ccc(N=C=S)cc1S(=O)(=O)O` [DIDS, 4,4′-diisothiocyanatostilbene-2,2′-disulfonic acid]: in experiment [1], the “effect on SNO in the membrane fraction” value is recorded as “greatly decreased; also recorded: substantially decreases” and the “effect on net formation of NO-liganded Hb (total NO incorporated by RBCs)” value was “did not reduce; also recorded: does not reduce”. In addition, the “effect of prior treatment on transfer of NO groups from SNO-Hb to IOVs” value in experiment [2] was “reduced significantly; also recorded: greatly reduced”.

`[N]=O` [NO, nitric oxide]: in experiment [3], the “shortfall in the Fe(III) and Fe(II)NO products” value is ≤ 20 % of added [NO]0.
